Data taken from publication PMC9699072 (Molecules, 2022).
Where “and” joins values, the source holds several entries; their conditions need not be identical. Equal values may be shown once.

How the values were obtained:
Assay type in all cases: biochemical
[1] = ABTS radical cation scavenging (decolorization) assay; settings: mean ± SEM, n = 3; for IC50: 1 h, read-out: ABTS IC50 (compound concentration required for 50% reduction of the ABTS radical-cation) (converted); for ABTS TEAC (Trolox equivalent antioxidant capacity): 1 h incubation, relative to Trolox
Protocol: The ABTS assay is based on the direct quenching of the ABTS cation radical (ABTS^•+) by antioxidants. The assay is carried out by spectrophotometric determination of a decrease in absorbance of a stable dark green ABTS^•+ solution after its interaction with an antioxidant compound [56]. The measurements were performed as previously described in detail. The results are expressed as TEAC values (Trolox equivalent antioxidant capacity) and IC50 values (compound concentration required for 50% reduction of the ABTS radical).
Radical scavenging activity of the compounds was assessed using the ABTS radical cation (ABTS^•+) decolorization assay with some modifications. ABTS (2,2′-azinobis-(3-ethylbenzothiazoline-6-sulfonic acid)) was purchased from Tokyo Chemical Industry Co., Ltd. (Tokyo, Japan), and potassium persulfate (dipotassium peroxodisulfate), Trolox (6-hydroxy-2,5,7,8-tetramethylchroman-2-carboxylic acid), and HPLC-grade ethanol and DMSO were obtained from Sigma-Aldrich (Saint Louis, MO, USA). Aqueous solutions were prepared using deionized water. All test compounds were dissolved in DMSO.
The solution of cation radical ABTS^•+ was produced by incubation of an aqueous solution of 7 mM ABTS and 2.45 mM potassium persulfate solution in equal quantities for 12–16 h at room temperature in the dark. Radical scavenging capacity of the compounds was analyzed by mixing 10 μL of compound with 240 μL of ABTS^•+ working solution in ethanol (100 μM final concentration). Data were given for 1 h of incubation of compounds with ABTS^•+. The reduction in absorbance was measured spectrophotometrically at 734 nm using an xMark microplate UV/VIS microplate spectrophotometer (Bio-Rad, Hercules, CA, USA).
Ethanol blanks were run in each assay. Values were obtained from three replicates of each sample and three independent experiments.
Standard antioxidant Trolox was used as a reference compound. Antioxidant capacity as Trolox equivalent (TEAC) values was determined as the ratio between the slopes obtained from the linear correlation of the ABTS radical absorbance with the concentrations of tested compounds and Trolox. Quercetin was used as a positive control. For the test compounds that reduced ABTS^•+ absorbance by more than 60% at 100 µM, we also determined the IC50 values (the compound concentration required for a 50% reduction of the ABTS radical). The compounds were tested in the concentration range of 0.5–400 µM.

[2] = FRAP (ferric reducing antioxidant power) assay; settings: mean ± SEM, n = 3; 1 h, 37 °C, pH 3.6
Protocol: The FRAP (ferric reducing antioxidant power) assay measures the ability of antioxidants to reduce the ferric 2,4,6-tripyridyl-s-triazine complex [Fe(TPTZ)2]^3+ to the intensely blue ferrous complex [Fe(TPTZ)2]^2+ in an acidic medium. The measurements were performed as previously described in detail. The results are expressed as TE (Trolox equivalents).
The FRAP (ferric reducing antioxidant power) assay measures the ability of antioxidants to reduce the ferric 2,4,6-tripyridyl-s-triazine complex [Fe (TPTZ)2]^3+ to the intensely blue ferrous complex [Fe (TPTZ)2]^2+ (λ = 593 nm) in acidic medium. 2,4,6-Tris(pyridin-2-yl)-1,3,5-triazine (TPTZ), FeCl3·6H2O, Trolox, quercetin and DMSO were obtained from Sigma-Aldrich Chemical Co. (St. Louis, MO, USA). The FRAP reagent contained 2.5 mL of 10 mM TPTZ solution in 40 mM HCl, 2.5 mL of 20 mM FeCl3·6H2O water solution, and 25 mL of 0.3 M acetate buffer (pH 3.6). Aliquots of 10 µL of the test compound solution in DMSO (0.5 mM) were mixed with 240 µL of FRAP reagent, and the absorbance of the mixture was measured spectrophotometrically (FLUOStar OPTIMA microplate spectrophotometer (BMG Labtech, Ortenberg, Germany)) at 600 nm after 1 h incubation at 37 °C against a blank. Trolox was used as a reference compound. Quercetin was used as a positive control. A calibration curve with linear formula y = 0.03x (R^2 = 0.998, p < 0.0001) was prepared for Trolox solutions in DMSO at a range of 2.5–100 µM, and the results are expressed as Trolox equivalents (TE), the values calculated as the ratio of the concentrations of Trolox and the test compound, resulting in the same effect.

human erythrocyte AChE = target: T1, human erythrocyte AChE (Homo sapiens, UniProt P22303); experiment: Inhibition of AChE (Ellman's colorimetric assay); settings: read-out: AChE % inhibition at 20 μM
T1 construct: Human erythrocyte acetylcholinesterase (AChE, EC 3.1.1.7); purchased Sigma-Aldrich (Saint Louis, MO, USA); host or cells: human erythrocytes
Source text: (§1) Given the available literature data on the ability of pyrazole derivatives to inhibit acetylcholinesterase (AChE) and human carboxylesterase-1 (CES), we performed an investigation of the esterase profile for new compounds 1a–j and 4a–j, including an evaluation of their inhibitory effect on the standard enzymes set: human erythrocyte AChE, equine serum butyrylcholinesterase (BChE), and porcine liver CES (Table 2). The applicability of this set of enzymes was shown by us earlier.
(§2) Human erythrocyte acetylcholinesterase (AChE, EC 3.1.1.7), equine serum butyrylcholinesterase (BChE, EC 3.1.1.8), porcine liver carboxylesterase (CES, EC 3.1.1.1), acetylthiocholine iodide (ATCh), butyrylthiocholine iodide (BTCh), 4-nitrophenol acetate (4-NPA), and 5,5′-dithio-bis-(2-nitrobenzoic acid) (DTNB) were purchased from Sigma-Aldrich (Saint Louis, MO, USA).
(§3) All the kinetic experiments were performed under standard conditions, according to the protocol of IPAC RAS for a reversible inhibitors study.
(§4) Ellman’s colorimetric assay was used to measure AChE and BChE activity in 0.1 M K/Na phosphate buffer at pH 7.5, 25 °C [86]. Final concentrations of reactants were 0.33 mM DTNB, 0.02 unit/mL of AChE or BChE, and 1 mM of substrate (ATCh or BTCh, respectively). Reagent blanks consisted of reaction mixtures without enzyme to assess non-enzymatic hydrolysis of substrates. Porcine liver CES activity was assessed colorimetrically in 0.1 M K/Na phosphate buffer with pH 8.0 at 25 °C, by measuring the absorbance of 4-nitrophenol at 405 nm. Final enzyme and substrate (4-NPA) concentrations were 0.02 unit/mL and 1 mM, respectively. Reagent blanks included all constituents except enzyme.
(§5) Test compounds were dissolved in DMSO. Reaction mixtures contained a final DMSO concentration of 2% (v/v). Enzyme inhibition was first assessed at a single concentration of 20 µM for each compound after a 10 min incubation at 25 °C in three separate experiments. Compounds inhibiting the enzyme by more than 30% were then selected for determination of the IC50 (inhibitor concentration resulting in 50% inhibition of control enzyme activity). […] Substrate was then added, and residual enzyme activity relative to an inhibitor-free control was measured using a FLUOStar Optima microplate reader (LabTech, Ortenberg, Germany).

porcine liver CES = experiment: Inhibition of CES (4-nitrophenol acetate hydrolysis); settings: 20 μM, ± SEM, n = 3, 10 min incubation 25 °C
Source text: as §1, §2, §3, §4, §5

[3] = ORAC-FL (oxygen radical absorbance capacity) assay; settings: mean ± SEM, n = 3; 2 h; 10 μM compound and Trolox
Source text: In the oxygen radical absorbance capacity (ORAC-FL) assay, 2,2′-azobis-(2-methylpropionamidine) dihydrochloride (AAPH) is used as a free peroxyl radical generator, and fluorescein (FL) is used as a fluorescent probe. The method is based on measuring the decrease in the intensity of fluorescence with time, which characterizes the degree of decay of the fluorescent probe under the influence of peroxyl radicals. In the presence of antioxidants, the degree of decay of the fluorescent probe decreases and, accordingly, the fluorescence intensity increases. The results are expressed as TE (Trolox equivalents).
The ORAC assay utilizes a biologically relevant radical source, 2,2′-azobis(2-amidinopropane) dihydrochloride (AAPH)-derived peroxyl radicals. Thus, it is a more physiologically relevant assay than ABTS and FRAP.
The oxygen radical absorbance capacity (ORAC) was determined by the ability of compounds to protect fluorescein (FL) from peroxyl radicals that are generated by AAPH according to the known method with minor variations. The reaction was carried out at 37 °C in black 96-well plates (SPL life sciences), and the final volume of the reaction mixture was 200 µL per well. The fluorescence was recorded by Tecan M1000 PRO microplate reader (Switzerland) at 485 nm excitation and 520 nm emission.
The 0.7 mM fluorescein sodium salt stock solution in PBS pH 7.4 (137 mM sodium chloride, 2.7 mM potassium chloride, and 10 mM phosphate buffer) was prepared and stored at 4–5 °C no longer than one month. An aliquot of the fluorescein stock solution was further diluted with PBS immediately before each assay to yield a 70 nM working solution. The 133 mM AAPH solution in PBS was prepared immediately before use. The test compounds and Trolox standard were dissolved in DMSO to 400 μM. The final concentration was 10 μM for all of the samples.
The blank was composed of 15 μL PBS pH 7.4, 5 μL DMSO (final concentration: 2.5% (v/v)), 120 μL FL, and 60 μL AAPH, and it was included in each assay. PBS pH 7.4 (15 μL), antioxidant (the test compound or Trolox, 5 μL), and FL (120 μL, final concentration: 42 nM) solutions were placed in a black 96-well microplate and were pre-incubated for 15 min at 37 °C. AAPH solution (60 μL, final concentration 40 mM) was then added rapidly using a multichannel pipette. The fluorescence was recorded every minute for 2 h. A Trolox standard curve was also obtained in each assay. All reactions were carried out in quadruplicate, and two to four independent assays were performed for each sample.
Antioxidant curves (fluorescence vs. time) were first normalized to the curve of the blank (without antioxidant) corresponding to the same assay, and the net AUC corresponding to a sample was calculated by subtracting the AUC corresponding to the blank. The ORAC value was obtained by dividing the latter curve by the Trolox curve obtained in the same assay at 10 μM concentrations of compounds and Trolox. Final ORAC values, Trolox equivalents (TE), were expressed as μmol test compounds per μmol Trolox, where the value of TE for Trolox was taken as 1. Data were expressed as means ± SEM.

[4] = target: T2, equine serum butyrylcholinesterase (BChE) (Equus caballus, UniProt P81908); experiment: Inhibition of BChE (Ellman's colorimetric assay); settings: ± SEM, n = 3, 10 min incubation 25 °C
T2 construct: equine serum butyrylcholinesterase (BChE, EC 3.1.1.8); purchased Sigma-Aldrich (Saint Louis, MO, USA); host or cells: equine serum
Source text: as §1, §2, §3, §4, §5

[5] = ORAC-FL (oxygen radical absorbance capacity) assay; settings: mean ± SEM, n = 3; 2 h; read-out: ORAC-FL IC50 (compound concentration required for 50% reduction of peroxyl radical) (converted)

T2 sequence (P81908 whole entry): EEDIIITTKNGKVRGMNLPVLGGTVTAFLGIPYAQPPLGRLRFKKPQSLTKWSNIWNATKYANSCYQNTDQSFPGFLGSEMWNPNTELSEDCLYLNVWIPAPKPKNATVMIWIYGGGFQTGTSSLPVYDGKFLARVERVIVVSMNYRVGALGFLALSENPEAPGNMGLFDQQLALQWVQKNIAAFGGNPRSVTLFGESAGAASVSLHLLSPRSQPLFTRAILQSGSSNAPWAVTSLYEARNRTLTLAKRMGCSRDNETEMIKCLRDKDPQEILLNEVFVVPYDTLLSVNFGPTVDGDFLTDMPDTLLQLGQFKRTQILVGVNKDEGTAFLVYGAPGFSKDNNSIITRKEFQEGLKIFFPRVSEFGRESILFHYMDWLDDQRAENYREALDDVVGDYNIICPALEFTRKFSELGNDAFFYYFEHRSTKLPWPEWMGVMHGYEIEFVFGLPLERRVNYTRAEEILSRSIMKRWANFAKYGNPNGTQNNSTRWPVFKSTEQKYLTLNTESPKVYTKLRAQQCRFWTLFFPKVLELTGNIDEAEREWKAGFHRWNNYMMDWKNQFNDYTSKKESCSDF
T1 sequence (P22303 32-617 isoform P22303-2 limits assumed): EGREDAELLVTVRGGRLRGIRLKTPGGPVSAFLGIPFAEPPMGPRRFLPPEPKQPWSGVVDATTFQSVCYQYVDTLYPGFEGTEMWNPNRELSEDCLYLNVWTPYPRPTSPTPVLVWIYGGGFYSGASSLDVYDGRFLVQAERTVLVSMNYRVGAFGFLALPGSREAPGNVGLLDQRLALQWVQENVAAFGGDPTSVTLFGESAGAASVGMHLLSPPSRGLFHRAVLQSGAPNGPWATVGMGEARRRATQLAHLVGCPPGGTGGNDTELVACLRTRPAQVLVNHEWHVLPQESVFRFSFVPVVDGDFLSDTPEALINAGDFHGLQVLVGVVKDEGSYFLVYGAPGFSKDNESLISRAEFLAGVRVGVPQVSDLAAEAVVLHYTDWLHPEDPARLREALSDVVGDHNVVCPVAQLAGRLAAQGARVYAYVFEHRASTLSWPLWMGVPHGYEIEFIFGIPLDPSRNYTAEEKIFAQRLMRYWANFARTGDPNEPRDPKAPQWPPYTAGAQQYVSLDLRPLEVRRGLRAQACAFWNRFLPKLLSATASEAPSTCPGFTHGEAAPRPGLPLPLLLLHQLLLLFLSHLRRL

Cl.Nc1c(C(F)(F)C(F)F)n[nH]c1O.O [4f, 4-Amino-3-(1,1,2,2-tetrafluoroethyl)-1H-pyrazol-5-ol hydrate hydrochloride]
IC50 [1]: 33.2 µM
ABTS TEAC (Trolox equivalent antioxidant capacity) [1]: 0.50 ± 0.02 TEAC
FRAP TE (Trolox equivalent) [2]: 0.62 ± 0.01 TE
inhibition at 20 µM (human erythrocyte AChE): 17.3 ± 1.5%
CES % inhibition at 20 μM (porcine liver CES): 17.5 ± 1.4%

O=c1c(O)c(-c2ccc(O)c(O)c2)oc2cc(O)cc(O)c12 [Quercetin, reference compound]
IC50 [1]: 13.8 µM
ABTS TEAC (Trolox equivalent antioxidant capacity) [1]: 1.20 ± 0.11 TEAC
FRAP TE (Trolox equivalent) [2]: 4.99 ± 0.02 TE
ORAC-FL TE (Trolox equivalent) [3]: 5.41 ± 0.08 TE

CC1=NN(c2ccccc2)C(=O)/C1=N\O [1d]
ABTS TEAC (Trolox equivalent antioxidant capacity) [1]: 0.16 ± 0.02 (n.d.) TEAC
ORAC-FL TE (Trolox equivalent) [3]: 1.07 TE and 1.07 ± 0.17 TE
inhibition at 20 µM (human erythrocyte AChE): 4.9 ± 1.3%
inhibition at 20 µM [4]: 6.6 ± 1.3%

O=C1NN=C(C(F)(F)C(F)F)/C1=N/O [1f]
ABTS TEAC (Trolox equivalent antioxidant capacity) [1]: 0.15 ± 0.007 (n.d.) TEAC
inhibition at 20 µM (human erythrocyte AChE): 6.8 ± 1.2%
inhibition at 20 µM [4]: 4.7 ± 1%
CES % inhibition at 20 μM (porcine liver CES): 3.5 ± 0.9%

O=C1/C(=N\O)C(C(F)(F)C(F)(F)C(F)(F)C(F)(F)F)=NN1c1ccccc1 [1c]
ABTS TEAC (Trolox equivalent antioxidant capacity) [1]: 0.04 ± 0.004 (n.d.) TEAC
FRAP TE (Trolox equivalent) [2]: 0.06 ± 0.01 TE
inhibition at 20 µM (human erythrocyte AChE): 11.5 ± 1.8%
inhibition at 20 µM [4]: 5.3 ± 1%
CES % inhibition at 20 μM (porcine liver CES): 7.8 ± 1.4%

O=C1NN=C(C(F)(F)C(F)(F)C(F)(F)F)/C1=N/O [1h]
ABTS TEAC (Trolox equivalent antioxidant capacity) [1]: 0.19 ± 0.008 (n.d.) TEAC
ORAC-FL TE (Trolox equivalent) [3]: 2.37 ± 0.09 TE
inhibition at 20 µM (human erythrocyte AChE): 5.3 ± 1.3%
CES % inhibition at 20 μM (porcine liver CES): 6.6 ± 1.4%

O=C1/C(=N\O)C(C(F)(F)F)=NN1c1ccccc1 [1a]
ABTS TEAC (Trolox equivalent antioxidant capacity) [1]: 0.035 ± 0.002 (n.d.) TEAC

O=C1/C(=N\O)C(C(F)(F)C(F)(F)F)=NN1c1ccccc1 [1b]
ABTS TEAC (Trolox equivalent antioxidant capacity) [1]: 0.03 ± 0.002 (n.d.) TEAC
FRAP TE (Trolox equivalent) [2]: 0.06 ± 0.01 TE
inhibition at 20 µM (human erythrocyte AChE): 11.9 ± 0.9%
inhibition at 20 µM [4]: 16.1 ± 1.4%
CES % inhibition at 20 μM (porcine liver CES): 8.2 ± 1.3%

O=C1NN=C(C(F)(F)C(F)(F)C(F)(F)C(F)(F)F)/C1=N/O [1i]
ABTS TEAC (Trolox equivalent antioxidant capacity) [1]: 0.2 ± 0.01 (n.d.) TEAC
ORAC-FL TE (Trolox equivalent) [3]: 2.41 ± 0.08 TE

Cc1c(C)c2c(c(C)c1O)CCC(C)(C(=O)O)O2 (stereo not drawn) [Trolox, 6-hydroxy-2,5,7,8-tetramethylchroman-2-carboxylic acid, reference compound]
IC50 [1]: 20.1 µM
ABTS TEAC (Trolox equivalent antioxidant capacity) [1]: 1.0 TEAC
FRAP TE (Trolox equivalent) [2]: 1.0 TE
ORAC-FL TE (Trolox equivalent) [3]: 1.0 TE
IC50 [5]: 23.6 µM
